Laboratory results from patent US20260085073A1, “PYRAZOLYLCARBOXAMIDE COMPOUNDS AND THEIR USE IN THERAPY” (Hotspot Therapeutics, Inc., priority 2022, published 2026).

Molecular target: T1, MALT1 (Homo sapiens, UniProt Q9UDY8)
T1 construct: Avi-tagged FL MALT-1 (Pharmaron, stored at −70° C.); Avi-tag
T1 sequence (Q9UDY8 1-824): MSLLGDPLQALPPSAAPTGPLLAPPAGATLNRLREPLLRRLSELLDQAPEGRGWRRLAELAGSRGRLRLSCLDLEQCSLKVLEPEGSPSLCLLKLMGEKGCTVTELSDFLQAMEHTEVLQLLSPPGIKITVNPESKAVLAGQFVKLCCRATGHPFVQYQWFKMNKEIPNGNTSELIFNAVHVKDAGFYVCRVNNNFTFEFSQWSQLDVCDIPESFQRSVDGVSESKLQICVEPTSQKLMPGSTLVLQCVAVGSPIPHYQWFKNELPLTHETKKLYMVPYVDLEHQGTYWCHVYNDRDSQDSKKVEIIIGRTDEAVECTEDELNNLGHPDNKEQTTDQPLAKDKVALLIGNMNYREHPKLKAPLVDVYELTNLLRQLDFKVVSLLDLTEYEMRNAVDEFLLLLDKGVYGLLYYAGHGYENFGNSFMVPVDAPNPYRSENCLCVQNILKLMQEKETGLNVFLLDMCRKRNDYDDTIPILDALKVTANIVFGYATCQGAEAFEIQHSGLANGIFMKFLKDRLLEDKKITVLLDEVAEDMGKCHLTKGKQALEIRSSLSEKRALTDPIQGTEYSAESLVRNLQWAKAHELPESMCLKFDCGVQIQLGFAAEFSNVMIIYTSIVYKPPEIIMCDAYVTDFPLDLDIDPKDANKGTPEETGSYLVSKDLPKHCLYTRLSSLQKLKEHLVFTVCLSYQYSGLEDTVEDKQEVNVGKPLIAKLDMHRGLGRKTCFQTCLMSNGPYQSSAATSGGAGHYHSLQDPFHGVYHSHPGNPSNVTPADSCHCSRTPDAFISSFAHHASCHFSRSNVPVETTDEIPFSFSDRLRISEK
Test: MALT1 inhibition assay (MALT-1 Fluorogenic Peptide Cleavage Assay, Ac-LRSR-AMC substrate)
Assay type: biochemical
Conditions: Avi-tagged FL MALT-1, 30 min pre-incubation, 90 min reaction at room temperature, fluorescence intensity
Method in brief: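 Full-length Avi-tagged MALT1 pre-incubated 30 min at room temperature with compounds (2% DMSO final) in HEPES pH 6.89, sodium citrate, TCEP, EDTA, CHAPS buffer. Ac-LRSR-AMC added from 50 µM (Km) or […] working stocks; 90 min at room temperature, AMC fluorescence (ex 342/em 441 nm); IC50 from % inhibition curves.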

IC50 | Structure (SMILES)
2500 to 10000 nM | N#Cc1cc(NC(=O)c2c(C(F)(F)F)c(-c3ccccc3)nn2C2COC2)cnc1-n1nccn1 [Compound I-177]
> 10000 nM | O=C(Nc1ccnc(C(F)(F)F)c1)c1c(C(F)(F)F)c(-c2ccccc2)nn1C1COC1 [Compound I-178]
< 500 nM | O=C(Nc1cnc(-n2nccn2)c(Cl)c1)c1c(C(F)(F)F)c(-c2ccccc2)nn1C(F)F [Compound I-179, N-(5-chloro-6-(2H-1,2,3-triazol-2-yl)pyridin-3-yl)-1-(difluoromethyl)-3-phenyl-4-(trifluoromethyl)-1H-pyrazole-5-carboxamide]
< 500 nM | O=C(Nc1cnc(-n2nccn2)c(Cl)c1)c1nn(C(F)F)c(-c2ccccc2)c1C(F)(F)F [Compound I-180]
2500 to 10000 nM | O=C(Nc1cnc(-n2nccn2)c(Cl)c1)c1cc(-c2ccccc2)nn1C(F)F [Compound I-181]
> 10000 nM | O=C(Nc1cnc(-n2nccn2)c(Cl)c1)c1cc(-c2ccccc2)n(C(F)F)n1 [Compound I-182]
> 10000 nM | O=C1c2c(C(F)(F)F)c(-c3ccccc3)nn2CCCN1c1ccnc(C(F)(F)F)c1 [Compound I-183, 2-phenyl-3-(trifluoromethyl)-5-(2-(trifluoromethyl)pyridin-4-yl)-5,6,7,8-tetrahydro-4H-pyrazolo[1,5-a][1,4]diazepin-4-one]
> 10000 nM | O=C1c2c(C(F)(F)F)c(-c3ccccc3)nn2CCN1c1ccnc(C(F)(F)F)c1 [Compound I-184]
< 500 nM | CN(C)CCn1nc(-c2cccc3ccoc23)c(C(F)(F)F)c1C(=O)Nc1cnc(-n2nccn2)c(C#N)c1 [Compound I-186, 3-(benzofuran-7-yl)-N-(5-cyano-6-(2H-1,2,3-triazol-2-yl)pyridin-3-yl)-1-(2-(dimethylamino)ethyl)-4-(trifluoromethyl)-1H-pyrazole-5-carboxamide]
2500 to 10000 nM | Cn1nc(-c2cccc3c(=O)[nH]cnc23)c(C(F)(F)F)c1C(=O)Nc1ccnc(C(F)(F)F)c1 [Compound I-187, 1-methyl-3-(4-oxo-3,4-dihydroquinazolin-8-yl)-4-(trifluoromethyl)-N-(2-(trifluoromethyl)pyridin-4-yl)-1H-pyrazole-5-carboxamide]
< 500 nM | O=C(Nc1cnc(-n2nccn2)c(Cl)c1)c1nn2c(c1C(F)(F)F)-c1ccccc1CC2 [Compound I-188, N-(5-chloro-6-(2H-1,2,3-triazol-2-yl)pyridin-3-yl)-1-(trifluoromethyl)-5,6-dihydropyrazolo[5,1-a]isoquinoline-2-carboxamide]
< 500 nM | O=C(Nc1cnc(-n2nccn2)c(Cl)c1)c1c(C(F)(F)F)c(-c2ccccc2)nn1C1CC1 [Compound I-189, N-(5-chloro-6-(2H-1,2,3-triazol-2-yl)pyridin-3-yl)-1-cyclopropyl-3-phenyl-4-(trifluoromethyl)-1H-pyrazole-5-carboxamide]
500 to 2500 nM | O=C(Nc1cnc(-n2nccn2)c(C(F)(F)F)c1)c1c(C(F)(F)F)c(-c2ccccc2)nn1C1CC1 [Compound I-190]
500 to 2500 nM | O=C(Nc1cnc(-n2nccn2)c(Cl)c1)c1nn(C2CC2)c(-c2ccccc2)c1C(F)(F)F [Compound I-191]
500 to 2500 nM | O=C(Nc1ccnc(C(F)(F)F)c1)c1nn(C2CC2)c(-c2ccccc2)c1C(F)(F)F [Compound I-192]
500 to 2500 nM | Cn1nc(C(=O)c2ccccc2)c(C(F)(F)F)c1C(=O)Nc1ccnc(C(F)(F)F)c1 [Compound I-193, 3-benzoyl-1-methyl-4-(trifluoromethyl)-N-(2-(trifluoromethyl)pyridin-4-yl)-1H-pyrazole-5-carboxamide]
2500 to 10000 nM | Cn1nc(-c2cnc(CO)c3ccccc23)c(C(F)(F)F)c1C(=O)Nc1ccnc(C(F)(F)F)c1 [Compound I-194, 3-(1-(hydroxymethyl)isoquinolin-4-yl)-1-methyl-4-(trifluoromethyl)-N-(2-(trifluoromethyl)pyridin-4-yl)-1H-pyrazole-5-carboxamide]
> 10000 nM | Cn1nc(-c2cnc3ccccn23)c(C(F)(F)F)c1C(=O)Nc1ccnc(C(F)(F)F)c1 [Compound I-195, 3-(imidazo[1,2-a]pyridin-3-yl)-1-methyl-4-(trifluoromethyl)-N-(2-(trifluoromethyl)pyridin-4-yl)-1H-pyrazole-5-carboxamide]
500 to 2500 nM | Cn1nc(-c2ccc(F)c(N)n2)c(C(F)(F)F)c1C(=O)Nc1ccnc(C(F)(F)F)c1 [Compound I-196, 3-(6-amino-5-fluoropyridin-2-yl)-1-methyl-4-(trifluoromethyl)-N-(2-(trifluoromethyl)pyridin-4-yl)-1H-pyrazole-5-carboxamide]
> 10000 nM | Cn1nc(-c2cccc3c2CCNC3)c(C(F)(F)F)c1C(=O)Nc1ccnc(C(F)(F)F)c1 [Compound I-197]
< 500 nM | Cn1nc(-c2cc(N)ncc2Cl)c(C(F)(F)F)c1C(=O)Nc1ccnc(C(F)(F)F)c1 [Compound I-198]
2500 to 10000 nM | COc1c(-c2nn(C)c(C(=O)Nc3ccnc(C(F)(F)F)c3)c2C(F)(F)F)ccnc1N [Compound I-199]
> 10000 nM | Cn1nc(C2CCNCC2)c(C(F)(F)F)c1C(=O)Nc1ccnc(C(F)(F)F)c1 [Compound I-200]
> 10000 nM | Cn1nc(-c2n[nH]c3cnccc23)c(C(F)(F)F)c1C(=O)Nc1ccnc(C(F)(F)F)c1 [Compound I-201]

Further lines, the compound ahead of its results:

Structure (SMILES) | IC50
Cn1nc(C(=O)Nc2ccc(C(=O)N3CC(O)C3)c(Cl)c2)cc1-c1ccccc1 [Compound I-155] | > 10000 nM
COc1ncc(NC(=O)c2c(C(F)(F)F)c(-c3cccc4ccoc34)nn2C)cc1C#N [Compound I-156] | < 500 nM
Cn1nc(-c2cccc3c(=O)[nH]ccc23)c(C(F)(F)F)c1C(=O)Nc1cnc(-n2nccn2)c(C#N)c1 [Compound I-157] | < 500 nM
Cn1nc(-c2cccc3c2OCC3)c(C(F)(F)F)c1C(=O)Nc1ccnc(C(F)(F)F)c1 [Compound I-158, 3-(2,3-dihydrobenzofuran-7-yl)-1-methyl-4-(trifluoromethyl)-N-(2-(trifluoromethyl)pyridin-4-yl)-1H-pyrazole-5-carboxamide] | < 500 nM
Cn1nc(-c2cccc3c2OCC3)c(C(F)(F)F)c1C(=O)Nc1cnc(-n2nccn2)c(Cl)c1 [Compound I-159] | < 500 nM
Cn1nc(-c2cncc3ccccc23)c(C(F)(F)F)c1C(=O)Nc1ccnc(C(F)(F)F)c1 [Compound I-160] | 500 to 2500 nM
Cn1nc(-c2cccc3ncnn23)c(C(F)(F)F)c1C(=O)Nc1ccnc(C(F)(F)F)c1 [Compound I-162, 3-([1,2,4]triazolo[1,5-a]pyridin-5-yl)-1-methyl-4-(trifluoromethyl)-N-(2-(trifluoromethyl)pyridin-4-yl)-1H-pyrazole-5-carboxamide] | 500 to 2500 nM
Cn1nc(-c2cccc3nccn23)c(C(F)(F)F)c1C(=O)Nc1cnc(-n2nccn2)c(Cl)c1 [Compound I-163] | < 500 nM
[2H]C([2H])([2H])n1nc(-c2ccccc2)c(C(F)(F)F)c1C(=O)Nc1cnc(-n2nccn2)c(Cl)c1 [Compound I-165] | < 500 nM
[2H]C([2H])([2H])n1nc(C(=O)Nc2cnc(-n3nccn3)c(Cl)c2)c(C(F)(F)F)c1-c1ccccc1 [Compound I-166] | < 500 nM
[2H]C([2H])([2H])n1nc(-c2ccccc2)c(C(F)(F)F)c1C(=O)Nc1cnc(-n2nccn2)c(C#N)c1 [Compound I-167] | < 500 nM
CCn1nc(C(=O)Nc2cnc(-n3nccn3)c(Cl)c2)c(C(F)(F)F)c1-c1ccccc1 [Compound I-168] | < 500 nM
CCn1nc(-c2ccccc2)c(C(F)(F)F)c1C(=O)Nc1cnc(-n2nccn2)c(Cl)c1 [Compound I-170] | < 500 nM
CN(C)CCn1nc(-c2ccccc2)c(C(F)(F)F)c1C(=O)Nc1cnc(-n2nccn2)c(Cl)c1 [Compound I-171, N-(5-chloro-6-(2H-1,2,3-triazol-2-yl)pyridin-3-yl)-1-(2-(dimethylamino)ethyl)-3-phenyl-4-(trifluoromethyl)-1H-pyrazole-5-carboxamide] | 500 to 2500 nM
COCCn1nc(-c2ccccc2)c(C(F)(F)F)c1C(=O)Nc1cnc(-n2nccn2)c(Cl)c1 [Compound I-172] | 500 to 2500 nM
COCCn1nc(C(=O)Nc2cnc(-n3nccn3)c(Cl)c2)c(C(F)(F)F)c1-c1ccccc1 [Compound I-173] | > 10000 nM
COCCn1nc(-c2ccccc2)c(C(F)(F)F)c1C(=O)Nc1cnc(-n2nccn2)c(C#N)c1 [Compound I-174] | 500 to 2500 nM
CN(C)CCn1nc(-c2ccccc2)c(C(F)(F)F)c1C(=O)Nc1cnc(-n2nccn2)c(C#N)c1 [Compound I-175] | 2500 to 10000 nM
O=C(Nc1cnc(-n2nccn2)c(Cl)c1)c1c(C(F)(F)F)c(-c2ccccc2)nn1C1COC1 [Compound I-176] | 2500 to 10000 nM
